Measurements as given in paper PMC8233901, “D-Amino Acid-Containing Lipopeptides Derived from the Lead Peptide BP100 with Activity against Plant Pathogens” (International Journal of Molecular Sciences, 2021).
Where a SMILES comes first, the peptide text is derived from it. [ ]: non-standard residue; d: D form. The star is where a group is joined. Lauroyl = CCCCCCCCCCCC(=O)*; Hexanoyl = CCCCCC(=O)*; Butyryl = CCCC(=O)*

Tests used:
tobacco leaves = assay: Effect of peptide infiltration on tobacco leaves (lesion size); assay type: in vivo; conditions: ± confidence interval; for Size of the lesion (mm) 50 µM: 100 µL infiltrated into mesophyll of tobacco leaves
Experimental: The lipopeptides were evaluated for their effect upon infiltration on tobacco leaves as described previously. Peptide solutions of 50, 150 and 250 μM were infiltrated (100 μL) into the mesophylls of fully expanded tobacco leaves. Infiltrations were carried out in a single leaf, and for each peptide and dose, at least three leaves randomly distributed in different plants were infiltrated. Control infiltrations with water (negative control) or melittin (positive control) at the same molar concentration were performed. The appearance of symptoms on the leaves was followed for 48 h after infiltration and measured as a lesion diameter.

horse erythrocytes = assay: Hemolytic activity (hemoglobin release from erythrocytes); assay type: cell-based; conditions: 37 °C, ± confidence interval (α = 0.05)
Experimental: The hemolytic activity of the compounds was evaluated by determining hemoglobin release from erythrocyte suspensions of horse blood (5% vol/vol) (Oxoid) as previously described. Blood was centrifuged at 6000 g for 5 min, washed three times with tris(hydroxymethyl)aminomethane (TRIS) buffer (10 mM TRIS, 150 mM NaCl, pH 7.2) and diluted 10 times. Compounds were solubilized in TRIS buffer at 750, 500, 300 and 100 μM and mixed with horse erythrocytes (1:1 v/v). The mixture was incubated under continuous shaking for 1 h at 37 °C. Then, the tubes were centrifuged at 3500 g for 10 min, 80 μL aliquots of the supernatant transferred to 100-well microplates (Bioscreen), diluted with 80 μL water, and the absorbance measured at 540 nm (Bioscreen). Complete hemolysis was obtained by the addition of melittin at 100 μM (Sigma-Aldrich Corporation, Madrid, Spain). The percentage of hemolysis (H) was calculated using the equation: H = 100 × [(Op−Ob)/(Om−Ob)], where Op is the density for a given compound concentration, Ob for the buffer, and Om for the melittin-positive control.

[1] = D-amino acid lipopeptides, lesion diameter, 48 h, at least three leaves
[2] = D-amino acid lipopeptides, 100 µL infiltrated into tobacco leaves, lesion diameter, 48 h, at least three leaves
[3] = D-amino acid lipopeptides, 250 µM, 100 µL infiltrated into tobacco leaves, lesion diameter, 48 h, at least three leaves
[4] = Table 2, 250 µM infiltrated into tobacco leaves
[5] = D-amino acid lipopeptides, 250 µM, TRIS buffer pH 7.2, 1 h, relative to melittin
[6] = D-amino acid lipopeptides, TRIS buffer pH 7.2, 1 h, relative to melittin

Structure (SMILES)	Size of the lesion (mm) 50 µM (tobacco leaves; [1])	Size of the lesion (mm) 150 µM (tobacco leaves; [2])	Size of the lesion (mm) 250 µM (tobacco leaves; [3])	Size of the lesion (mm) 250 µM (tobacco leaves; [4])	Hemolysis (%) 250 µM (horse erythrocytes; [5])	Hemolysis (%) 250 µM (horse erythrocytes; Table 2, 250 µM, 1 h, relative to melittin)	Hemolysis (%) 375 µM (horse erythrocytes; [6])	Hemolysis (%) 50 µM (horse erythrocytes; D-amino acid lipopeptides, 50 µM, TRIS buffer pH 7.2, 1 h, absorbance 540 nm, relative to melittin 100 µM)	Hemolysis (%) 150 µM (horse erythrocytes; D-amino acid lipopeptides, 150 µM, TRIS buffer pH 7.2, 1 h, relative to melittin)
CCCC(=O)NCCCC[C@H](NC(=O)[C@H](CCCCN)NC(=O)[C@@H](Cc1ccccc1)NC(=O)[C@H](CC(C)C)NC(=O)[C@H](CCCCN)NC(=O)[C@H](CCCCN)NC(C)=O)C(=O)N[C@H](C(=O)N[C@@H](CC(C)C)C(=O)N[C@@H](CCCCN)C(=O)N[C@@H](Cc1ccc(O)cc1)C(=O)N[C@@H](CC(C)C)C(N)=O)[C@@H](C)CC [BP473, Ac-KKLfKK(COC3H7)ILKYL-NH2]	2 ± 2 mm	4 ± 0.9 mm	5 ± 2 mm	5 ± 2 mm	84 ± 11%	–	–	–	–
CCCCCC(=O)NCCCC[C@@H](NC(=O)[C@H](CC(C)C)NC(=O)[C@H](CCCCN)NC(=O)[C@H](CCCCN)NC(C)=O)C(=O)N[C@@H](CCCCN)C(=O)N[C@@H](CCCCN)C(=O)N[C@H](C(=O)N[C@@H](CC(C)C)C(=O)N[C@@H](CCCCN)C(=O)N[C@@H](Cc1ccc(O)cc1)C(=O)N[C@@H](CC(C)C)C(N)=O)[C@@H](C)CC [BP484, Ac-KKLk(COC5H11)KKILKYL-NH2]	0 ± 0 mm	2 ± 2 mm	7 ± 1 mm	7 ± 1 mm	10 ± 2%	–	–	–	–
CCCCCC(=O)NCCCC[C@H](NC(=O)[C@H](CCCCN)NC(=O)[C@H](CCCCN)NC(=O)[C@@H](Cc1ccccc1)NC(=O)[C@H](CC(C)C)NC(=O)[C@H](CCCCN)NC(=O)[C@H](CCCCN)NC(C)=O)C(=O)N[C@@H](CC(C)C)C(=O)N[C@@H](CCCCN)C(=O)N[C@@H](Cc1ccc(O)cc1)C(=O)N[C@@H](CC(C)C)C(N)=O [BP494, Ac-KKLfKKK(COC5H11)LKYL-NH2] (Ac-KKL[dF]KKK(Hexanoyl)LKYL-NH2)	1 ± 1 mm	6 ± 1 mm	8 ± 1 mm	8 ± 1 mm	–	0.2 ± 0.2%	–	–	–
CCCCCCCCCCCC(=O)NCCCC[C@H](NC(=O)[C@H](CCCCN)NC(=O)[C@H](CCCCN)NC(=O)[C@@H](Cc1ccccc1)NC(=O)[C@H](CC(C)C)NC(=O)[C@H](CCCCN)NC(=O)[C@H](CCCCN)NC(C)=O)C(=O)N[C@@H](CC(C)C)C(=O)N[C@@H](CCCCN)C(=O)N[C@@H](Cc1ccc(O)cc1)C(=O)N[C@@H](CC(C)C)C(N)=O [BP489, Ac-KKLfKKK(COC11H23)LKYL-NH2] (Ac-KKL[dF]KKK(Lauroyl)LKYL-NH2)	2 ± 0.5 mm	6 ± 2 mm	11 ± 1 mm	11 ± 1 mm	100 ± 6%	–	100 ± 1%	–	–
CCCC(=O)NCCCC[C@H](NC(=O)[C@@H](NC(=O)[C@H](CCCCN)NC(=O)[C@H](CCCCN)NC(=O)[C@@H](Cc1ccccc1)NC(=O)[C@H](CC(C)C)NC(=O)[C@H](CCCCN)NC(=O)[C@H](CCCCN)NC(C)=O)[C@@H](C)CC)C(=O)N[C@@H](CCCCN)C(=O)N[C@@H](Cc1ccc(O)cc1)C(=O)N[C@@H](CC(C)C)C(N)=O [BP474, Ac-KKLfKKIK(COC3H7)KYL-NH2] (Ac-KKL[dF]KKIK(Butyryl)KYL-NH2)	0 ± 0 mm	2 ± 2 mm	4 ± 2 mm	4 ± 2 mm	0 ± 0%	–	0 ± 0%	0 ± 0%	0 ± 0%
